Test results: patent US20200339691A1, “PROTEINACEOUS MOLECULES AND USES THEREFOR” (priority 2018, published 2020)
Where a SMILES comes first, the peptide text is derived from it. The star is where a group is joined. Myristoyl = CCCCCCCCCCCCCC(=O)*

Assays:
[1] = tested on: CD44^hiCD24^lo CSCs in MDA-MB-231 cells; assay: FACS analysis of CD44^hiCD24^lo cancer stem cells in MDA-MB-231 cells treated with P1 analogues; format: cell-based, human; details: 50 μM peptide, 48 hours; for CD44^hiCD24^lo CSCs (%) / COI, Live Single CD44^hiCD24^lo CSCs (Cell Count): n = 1; for Average Inhibition of CSCs (%) / CD44^hiCD24^lo CSCs (%) Repeat 1 / CD44^hiCD24^lo CSCs (%) Repeat 2 / CD44^hiCD24^lo CSCs (%) Repeat 3: n = 3
Experimental: Analogues of P1 (Table 6) were designed and synthesized in accordance with the procedure of Example 5. The ability of these analogues to inhibit cancer stem cells was determined using FACS analysis on MDA-MB-231 cells, which constitutively contain approximately 90% CD44^hiCD24^lo cancer stem cells, treated with the peptides.
(§1) Non-adherent cells were removed during the washing steps.

[2] = tested on: MDA-MB-231 cells; format: cell-based, human; details: 50 μM peptide, 48 hours, n = 1;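 on COI, Live Single Cells (Cell Count): live means Hoechst-negative events among single cells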
Text: as §1

Row | Structure (SMILES) | Inhibition of CSCs (%) Repeat 1 [1] [%] | Inhibition of CSCs (%) Repeat 2 [1] [%] | Inhibition of CSCs (%) Repeat 3 [1] [%] | CD44^hiCD24^lo CSCs (%) [1] [%] | COI, Live Single CD44^hiCD24^lo CSCs (Cell Count) [1] | Average Inhibition of CSCs (%) [1] [%] | CD44^hiCD24^lo CSCs (%) Repeat 1 [1] [%] | CD44^hiCD24^lo CSCs (%) Repeat 2 [1] [%] | CD44^hiCD24^lo CSCs (%) Repeat 3 [1] [%] | COI (Cell Count) [2] | COI, Live Single Cells (Cell Count) [2] | COI, Single (Cell Count) [2] | Total Cell Count [2]
1 | CCCCCCCCCCCCCC(=O)N[C@@H](CC(C)C)C(=O)N[C@H](C(=O)N[C@@H](Cc1ccccc1)C(=O)N[C@H](C(=O)N[C@@H](Cc1ccccc1)C(=O)N[C@@H](CCCNC(=N)N)C(=O)N[C@@H](Cc1ccccc1)C(=O)N[C@@H](CCCNC(=N)N)C(=O)N[C@@H](CCCCN)C(=O)NCC(=O)N[C@@H](CCCNC(=N)N)C(=O)N[C@@H](CCSC)C(=O)N[C@@H](CCSC)C(=O)N[C@@H](CC(=O)O)C(=O)N[C@H](C(=O)N[C@@H](CCCCN)C(=O)N[C@@H](CCCCN)C(N)=O)C(C)C)[C@@H](C)CC)[C@@H](C)O [Peptide 2853819, Myristoyl-LTFIFRFRKGRMMDVKK-NH2] (Myristoyl-LTFIFRFRKGRMMDVKK-NH2) | 98.02 | 89.55 | 93.19 | 2.62 | 5 | 93.59 | 1.78 | 9.38 | 6.11 | 563 | 191 | 372 | 4572
2 | CCCCCCCCCCCCCC(=O)N[C@@H](CC(C)C)C(=O)N[C@H](C(=O)N[C@H](C(=O)N[C@H](C(=O)N[C@@H](Cc1ccccc1)C(=O)N[C@@H](CCCNC(=N)N)C(=O)N[C@@H](CC(C)C)C(=O)N[C@@H](CCCNC(=N)N)C(=O)N[C@@H](CCCCN)C(=O)NCC(=O)N[C@@H](CCCNC(=N)N)C(=O)N[C@@H](CCSC)C(=O)N[C@@H](CCSC)C(=O)N[C@@H](CC(=O)O)C(=O)N[C@H](C(=O)N[C@@H](CCCCN)C(=O)N[C@@H](CCCCN)C(N)=O)C(C)C)[C@@H](C)CC)C(C)C)[C@@H](C)O [Peptide 2853809, Myristoyl-LTVIFRLRKGRMMDVKK-NH2] (Myristoyl-LTVIFRLRKGRMMDVKK-NH2) | 49.62 | 53.48 | 60.55 | 35.61 | 537 | 54.55 | 45.15 | 41.73 | 35.40 | 1736 | 1508 | 1560 | 3548
3 | CCCCCCCCCCCCCC(=O)N[C@@H](CC(C)C)C(=O)N[C@H](C(=O)N[C@@H](Cc1ccccc1)C(=O)N[C@H](C(=O)N[C@@H](Cc1ccccc1)C(=O)N[C@@H](CCCNC(=N)N)C(=O)N[C@@H](CC(C)C)C(=O)N[C@@H](CCCNC(=N)N)C(=O)N[C@@H](CCCCN)C(=O)NCC(=O)N[C@@H](CCCNC(=N)N)C(=O)N[C@@H](CCC(=O)O)C(=O)N[C@@H](CCSC)C(=O)N[C@@H](CC(=O)O)C(=O)N[C@H](C(=O)N[C@@H](CCCCN)C(=O)N[C@@H](CCCCN)C(N)=O)C(C)C)[C@@H](C)CC)[C@@H](C)O [Peptide 2853832, Myristoyl-LTFIFRLRKGREMDVKK-NH2] (Myristoyl-LTFIFRLRKGREMDVKK-NH2) | 93.78 | 94.44 | 94.90 | 2.48 | 11 | 94.37 | 5.58 | 4.99 | 4.58 | 674 | 444 | 515 | 2068
4 | CCCCCCCCCCCCCC(=O)N[C@H](C(=O)N[C@@H](Cc1ccccc1)C(=O)N[C@H](C(=O)N[C@@H](Cc1ccccc1)C(=O)N[C@@H](CCCNC(=N)N)C(=O)N[C@@H](CC(C)C)C(=O)N[C@@H](C)C(=O)N[C@@H](CCCCN)C(=O)NCC(=O)N[C@@H](CCCNC(=N)N)C(=O)N[C@@H](CCSC)C(=O)N[C@@H](CCSC)C(=O)N[C@@H](CC(=O)O)C(=O)N[C@H](C(=O)N[C@@H](CCCCN)C(=O)N[C@@H](CCCCN)C(N)=O)C(C)C)[C@@H](C)CC)[C@@H](C)O [Peptide 2815308, Myristoyl-TFIFRLAKGRMMDVKK-NH2] (Myristoyl-TFIFRLAKGRMMDVKK-NH2) | 51.70 | 45.08 | 50.47 | 54.60 | 89 | 49.08 | 43.29 | 49.27 | 44.44 | 340 | 163 | 301 | 9921
5 | CCCCCCCCCCCCCC(=O)N[C@@H](CC(C)C)C(=O)N[C@H](C(=O)N[C@@H](Cc1ccccc1)C(=O)N[C@H](C(=O)N[C@@H](Cc1ccccc1)C(=O)N[C@@H](CCCNC(=N)N)C(=O)N[C@@H](CC(C)C)C(=O)N[C@@H](CCCNC(=N)N)C(=O)N[C@@H](CCCCN)C(=O)NCC(=O)N[C@@H](CCC(=O)O)C(=O)N[C@@H](CCSC)C(=O)N[C@@H](CCSC)C(=O)N[C@@H](CC(=O)O)C(=O)N[C@H](C(=O)N[C@@H](CCCCN)C(=O)N[C@@H](CCCCN)C(N)=O)C(C)C)[C@@H](C)CC)[C@@H](C)O [Peptide 2853830, Myristoyl-LTFIFRLRKGEMMDVKK-NH2] (Myristoyl-LTFIFRLRKGEMMDVKK-NH2) | 45.65 | 53.16 | 55.12 | 29.21 | 1312 | 51.31 | 48.71 | 42.02 | 40.27 | 5072 | 4491 | 4600 | 8489
6 | CCCCCCCCCCCCCC(=O)N[C@@H](CC(C)C)C(=O)N[C@H](C(=O)N[C@@H](Cc1ccccc1)C(=O)N[C@H](C(=O)N[C@@H](Cc1ccccc1)C(=O)N[C@@H](CCCNC(=N)N)C(=O)N[C@@H](CC(C)C)C(=O)N[C@@H](CCCNC(=N)N)C(=O)N[C@@H](CCCCN)C(=O)NCC(=O)N[C@@H](CCCNC(=N)N)C(=O)N[C@@H](CCSC)C(=O)N[C@@H](CCSC)C(=O)N[C@@H](CC(=O)O)C(=O)N[C@H](C(=O)N[C@@H](CCCCN)C(=O)N[C@@H](Cc1ccc(O)cc1)C(N)=O)C(C)C)[C@@H](C)CC)[C@@H](C)O [Peptide 2853847, Myristoyl-LTFIFRLRKGRMMDVKY-NH2] (Myristoyl-LTFIFRLRKGRMMDVKY-NH2) | 25.89 | 27.27 | 26.71 | 62.59 | 2640 | 26.62 | 66.42 | 65.25 | 65.76 | 5345 | 4218 | 4268 | 10000
7 | CCCCCCCCCCCCCC(=O)N[C@@H](CC(C)C)C(=O)N[C@H](C(=O)N[C@@H](Cc1ccccc1)C(=O)N[C@H](C(=O)N[C@@H](Cc1ccccc1)C(=O)N[C@@H](CCCNC(=N)N)C(=O)N[C@H](C(=O)N[C@@H](CCCNC(=N)N)C(=O)N[C@@H](CCCCN)C(=O)NCC(=O)N[C@@H](CCCNC(=N)N)C(=O)N[C@@H](CCSC)C(=O)N[C@@H](CCSC)C(=O)N[C@@H](CC(=O)O)C(=O)N[C@H](C(=O)N[C@@H](CCCCN)C(=O)N[C@@H](CCCCN)C(N)=O)C(C)C)C(C)C)[C@@H](C)CC)[C@@H](C)O [Peptide 2853820, Myristoyl-LTFIFRVRKGRMMDVKK-NH2] (Myristoyl-LTFIFRVRKGRMMDVKK-NH2) | 89.75 | 90.39 | 91.76 | 6.64 | 14 | 90.63 | 9.19 | 8.62 | 7.40 | 541 | 211 | 346 | 3098
8 | CCCCCCCCCCCCCC(=O)N[C@H](C(=O)N[C@@H](Cc1ccccc1)C(=O)N[C@H](C(=O)N[C@@H](Cc1ccccc1)C(=O)N[C@@H](CCCNC(=N)N)C(=O)N[C@@H](CC(C)C)C(=O)N[C@@H](CCCNC(=N)N)C(=O)N[C@@H](CCCCN)C(=O)NCC(=O)N[C@@H](CCCNC(=N)N)C(=O)N[C@@H](CCSC)C(=O)N[C@@H](C)C(=O)N[C@@H](CC(=O)O)C(=O)N[C@H](C(=O)N[C@@H](CCCCN)C(=O)N[C@@H](CCCCN)C(N)=O)C(C)C)[C@@H](C)CC)[C@@H](C)O [Peptide 2815313, Myristoyl-TFIFRLRKGRMADVKK-NH2] (Myristoyl-TFIFRLRKGRMADVKK-NH2) | 22.34 | 23.02 | 27.96 | 61.54 | 80 | 24.44 | 69.60 | 69.06 | 64.65 | 165 | 130 | 148 | 8909
